Columns and labels:
[1] = method code SF-AS, from DOI: 10.1111/j.1440-1681.1976.tb00621.x, PMID: 10116
[2] = method code SF-AS, from DOI: 10.1248/cpb.35.377
[3] = method code SF-AS, from DOI: 10.1248/cpb.26.2824
[4] = method code SF-AS, from DOI: 10.1016/0378-5173(80)90117-9
[5] = method code SF-AS, from DOI: 10.1248/cpb.36.1393
[6] = method code SF-HPLC, from DOI: 10.1002/ps.2780190203; details: pH 1.0
[7] = method code SF-HPLC, from DOI: 10.1002/etc.5620110812
[8] = not given; remark: listed apart in the source
[9] = not given; remark: listed apart in the source
[10] = method code SF, from Brown, J.; Yu, N.; Cory, M.; Bicknell, R.; Taylor, D. (1978). In vivo evaluation of the radiosensitizing and cytotoxic properties of newly synthesized electron-affinic drugs. 3, 206-211.
[11] = from Rich, R. (1990). Partition coefficients of quinones and their relation to biochemical reactivity. In Lenaz, G. (Ed.), Highlights in Ubiquinone Research: Proceedings of the International Symposium, …
[12] = method code SF-RC, from DOI: 10.1021/jm201482p, PMID: 22339166; details: pH 6.8
[13] = method code SF-AS, from Holmes, L.; Lough, E. (1976). Effect of Intramolecular Hydrogen Bonding on Partition Coefficients [Technical Note]. Defence Research Establishment Suffield.
[14] = method code SF, from DOI: 10.1002/ps.2780340212; details: pH 7.0
[15] = method code SF-GLC, from DOI: 10.1002/jps.2600600712, PMID: 4398902
[16] = not given; remark: listed apart in the source
[17] = not given; remark: listed apart in the source
[18] = method code SF-AS, from DOI: 10.1021/jm00299a013, PMID: 5458368
[19] = not given; remark: listed apart in the source
[20] = method code SF-MS, from DOI: 10.1016/j.fluid.2014.01.017; details: pH 7.6
[21] = method code SF-GLC, from DOI: 10.1021/je00020a050
[22] = method code SF-HPLC, from DOI: 10.1002/jps.2600780218, PMID: 2715940; details: pH 7.4
[23] = method code SF-HPLC, from DOI: 10.1002/jat.2550130210, PMID: 8486911; details: pH 13.0
[24] = from Bazaco, J.; Coca, C. (1989). Relation between the partition coefficient (Log Pow) and capacity factor (Log k') derived from reversed-phase HPLC of a series of benzaldehyde derivatives. Ciencia e …
[25] = not given; remark: listed apart in the source
[26] = not given; remark: listed apart in the source
[27] = method code SF-HPLC, from DOI: 10.1002/jps.2600831027, PMID: 7884677; details: pH 2.0
[28] = not given; remark: listed apart in the source
[29] = method code SF, from PMID: 2704; details: pH 1.0
[30] = method code SF-CR, from DOI: 10.1248/cpb.21.2417, PMID: 4779830; details: pH 6.0
[31] = method code SF, from Dai, J-Y.; Han, S.; Wang, L. (2000). Prediction of partition properties of substituted benzaldehydes using different structural parameters. Zhongguo Huanjing Kexue (China Environmental Science), …
[32] = not given; remark: listed apart in the source
[33] = method code SF-HPLC, from DOI: 10.1016/s0021-9673(01)83534-2
[34] = method code SF-RC, from DOI: 10.1111/j.2042-7158.1987.tb06949.x, PMID: 2882008; details: pH 1.0
[35] = not given; remark: listed apart in the source
[36] = method code SF, from DOI: 10.1016/j.tca.2004.05.019
[37] = method code SF-RC, from DOI: 10.1002/ps.2780300102; details: pH 1.0
[38] = not given; remark: listed apart in the source
[39] = method code SF-AS, from DOI: 10.1016/0009-2797(77)90097-7, PMID: 407012; details: pH 7.0

## CCC(Cl)(CC)C(=O)NC(N)=O
[1]
  logP: 1.4

## OCc1cc(Cl)cc(Cl)c1
[2]
  logP: 2.9

## O=C(O)c1ccccc1[N+](=O)[O-]
[3]
  logP: 1.46

## CCCCc1ccc(O)cc1
[4]
  logP: 3.65

## COc1ccc(O)cc1
[4]
  logP: 1.57

## Clc1ccc2c(Cl)ccnc2c1
[5]; pH 7.4
  logD: 3.57

## O=C(O)COc1ccc(Oc2ccc(Cl)cc2Cl)cc1
[6]
  logD: 4.51

## Sc1nc2ccccc2s1
[7]
  logP: 2.41

## O=[N+]([O-])c1ccc(Oc2c(Cl)cc(Cl)cc2Cl)cc1
other
  logP: 4.97

## O=C(O)Cn1c(=O)sc2cccc(Cl)c21
[8]
  logP: 2.21

## Oc1ccc2ccccc2c1
[2]
  logP: 2.75

## CC(=O)c1ccccc1
[9]
  logP: 1.71

## COCC(=O)Cn1ccnc1[N+](=O)[O-]
[10]
  logP: -0.26

## CC1=C(C)C(=O)C=CC1=O
[11]
  logP: 1.23

## [O-][n+]1ccc(Nc2ccc(O)cc2)c2ccc(Cl)cc21
[5]; pH 2.8
  logD: 1.23

## O=c1[nH]c(=O)n([C@H]2CC(F)[C@@H](CO)O2)cc1I (stereo not given in full)
[12]
  logD: -0.03

## CCC(=O)c1ccccc1O
[13]
  logP: 2.54

## CCCCc1c(C)[nH]c(NCC)nc1=O
[14]
  logD: 2.2

## O=C1CCCCCCN1
[15]
  logP: 0.24

## O=C(O)CCc1ccc(I)cc1
[16]
  logP: 2.81

## CS(=O)(=O)c1cccc(NC(N)=O)c1
[14]
  logD: -0.1

## CON=C(C#N)C(=O)N[C@@H](CSC)C(=O)O
[17]
  logP: 0.52

## Cc1ncc([N+](=O)[O-])n1CCS(=O)(=O)C(C)C
[18]
  logP: 0.13

## COc1c(Cl)c(Cl)cc(Cl)c1Cl
[19]
  logP: 4.68

## CCC(=O)c1ccc(O)cc1
[13]
  logP: 2.03

## CCCCCC/C=C/C=O
[20]
  logD: 3.11

## CCS(=O)(=O)CCn1ccnc1[N+](=O)[O-]
[10]
  logP: -0.58

## CON=C(C#N)C(=O)N[C@@H](CS(C)(=O)=O)C(=O)O
[17]
  logP: -0.73

## COc1cc(Cl)c(Cl)cc1OC
[21]
  logP: 3.11

## CC(=O)Nc1ccc(C#N)cc1
[22]
  logD: 1.36

## O=C(O)COc1cc(Cl)cc(Cl)c1
[6]
  logD: 2.84

## CCCCCCCCN
[23]
  logD: 3.3

## COc1ccc(C=O)cc1OC
[24]
  logP: 1.22

## CCOCC(O)Cn1ccnc1[N+](=O)[O-] (stereo not given)
[25]
  logP: -0.07

## CCc1ccc(C(=O)O)cc1
[26]
  logP: 2.85

## NC(=O)Cc1ccc(C(=O)O)cc1
[27]
  logD: 0.3

## CCn1ccc(=O)c(O)c1
[28]
  logP: -0.4

## Cc1ccccc1OCC(=O)O
[29]
  logD: 1.96

## COc1cccc(C=O)c1
[24]
  logP: 1.71

## CN(C)S(=O)(=O)c1ccc(N)cc1
[30]
  logD: 0.67

## Cc1ccc(C)c(C=O)c1
[31]
  logP: 1.91

## Cc1ccccc1C(=O)O
[3]
  logP: 2.18

## CON(C)C(=O)Nc1ccc(Cl)c(Cl)c1
[32]
  logP: 3

## COC(=O)c1cc([N+](=O)[O-])cc([N+](=O)[O-])c1
[33]
  logP: 1.84

## COc1c(Cl)cc(Cl)cc1Cl
[21]
  logP: 4.02

## CC(=O)Nc1ccc(C(=O)O)c(O)c1
[34]
  logD: 1.62

## COCCCNc1nc(NC(C)C)nc(SC)n1
[35]
  logP: 2.96

## COc1c(Cl)cc(Cl)c(Cl)c1Cl
[19]
  logP: 4.75

## COC(=O)COc1ccccc1C
[29]
  logD: 2.08

## CC(C)c1ccc(C(=O)O)cc1
[26]
  logP: 3.24

## O=Cc1ssc(=S)c1CCC(=O)O
[36]
  logP: 2.73

## N#CCc1ccccc1
[9]
  logP: 1.47

## O=C(O)CNC(=O)c1ccccc1I
[16]
  logP: 1.08

## O=C(O)Cc1ccc(Cl)cc1
[37]
  logD: 2.2

## CN(c1ccccn1)S(=O)(=O)c1ccc(N)cc1
[30]
  logD: 1.3

## S=C=Nc1cccc2c(N=C=S)cccc12
[38]
  logP: 4.43

## CC(=O)N(C)c1ccc([N+](=O)[O-])cc1
[22]
  logD: 0.91

## S=C=Nc1ccc(N=C=S)cc1
[38]
  logP: 2.8

## N#CCc1ccc(C(=O)O)cc1
[27]
  logD: 1.18

## O=Cc1ccc(Cl)c(Cl)c1
[31]
  logP: 2.53

## Cc1ncc([N+](=O)[O-])n1CCS(C)(=O)=O
[18]
  logP: -0.82

## CCCCn1ccc(=O)c(O)c1
[28]
  logP: 0.72

## O=C1CCCCCCCN1
[15]
  logP: 0.67

## CN1CC(O)N(c2nnc(C(C)(C)C)s2)C1=O (stereo not given)
[32]
  logP: 1.45

## C/C=C/OCC(O)Cn1ccnc1[N+](=O)[O-] (stereo not given)
[25]
  logP: 0.28

## O=C(O)Cc1cccc(I)c1
[34]
  logD: 2.49

## CCC(CC)(OC)C(=O)NC(N)=O
[1]
  logP: 0.96

## CC(C)=NNc1ccc([N+](=O)[O-])cc1[N+](=O)[O-]
[33]
  logP: 3.05

## O=C(O)Cc1ccc(Cl)c(Cl)c1
[8]
  logP: 2.9

## COc1c(O)ccc(O)c1OC
[11]
  logP: 0.61

## Cc1ssc(=S)c1CCC(=O)O
[36]
  logP: 2.04

## CSc1nc(N=[N+]=[N-])nc(NC(C)C)n1
[35]
  logP: 3.27

## N#CSCSc1nc2ccccc2s1
[7]
  logP: 3.12

## CS(=O)(=O)c1ccc(CC(=O)O)cc1
[37]
  logD: 0.06

## CCCCC/C=C\C=O
[20]
  logD: 2.38

## CC(C)(C)c1cc(C(C)(C)C)c2c(c1F)CO[P@@](=O)(OC[C@H]1O[C@@H](n3cc(I)c(=O)[nH]c3=O)C[C@@H]1O)O2
[12]
  logD: 2.23

## CN(C)c1nc(Cl)nc(N(C)C)n1
[39]
  logD: 2.31

## CCCCCC(C)(C)N
[23]
  logD: 2.19

## O=C1OC(=O)c2c(Cl)c(Cl)c(Cl)c(Cl)c21
other
  logP: 3.09

## CN(CO)c1nc(N(C)CO)nc(N(C)CO)n1
[39]
  logD: 0.4
